Patent US11661433B2, “Near-IR activatable fluorescent small molecules with dual modes of cytotoxicity” (VIRGINIA COMMONWEALTH UNIVERSITY, priority 2018, dated 2023)
Read-outs that look alike come from different tables or passages of the source.

Assays:
[1] = test system: MCF-7 (human breast cancer); experiment: MTT assay, MCF-7 cells; format: cell-based
Description: (§1) MTT assay: Cytotoxic profiles of the compounds were assessed in the following cell lines (passage number not exceeding 15): MCF-7 (human breast cancer) C-33 A (human cervical carcinoma) and HEK293T (transformed human kidney). Around 6000 cells were seeded in 96 well transparent flat-bottom tissue-culture plate in 200 μl of Dulbecco's Modified Eagle Medium (DMEM) containing 10% FBS (Fetal Bovine Serum) and were incubated for 24 h at 37° C. and 5% CO2. We performed an initial control experiment with vehicle alone (0.1% DMSO-DMEM) on cells with different dosages of near-IR light and compared it to unexposed counterparts. […] One such plate was exposed to near-IR light for 45 min in phenol-red free DMEM (200 μl) and room temperature was maintained using a cooling system. Another identical plate was kept in dark. The plates were incubated for another 24 h in dark. Finally, MTT [3-(4,5-dimethylthiazole-2-yl)-2,5-diphenyltetrazolium bromide] (25 μl of 5 mg/ml solution in PBS) was added and incubated for 3-4 h. The absorbance of the precipitated formazan was recorded at 550 nm in DMSO. Cells treated with 0.1% DMSO-DMEM was kept as controls which represented 100% viability. The half-growth inhibitory concentration (IC50) values were calculated by nonlinear regression analysis using GraphPad Prism5. The data is represented from two independent set of experiments, each of which was performed in triplicate.

[2] = test system: C-33 A (human cervical carcinoma); experiment: MTT assay, C-33 A cells; format: cell-based
Description: as §1

ctDNA [3] = experiment: DNA bound Pt content by ICP-MS; format: biochemical; conditions: extended incubation with ctDNA in the dark
Description: DNA bound Pt content: A 1×-PBS solution containing ctDNA (500 μM) and 1 (50 μM in 0.1% DMSO-PBS) was irradiated with near-IR light (720-740 nm) for 15, 30 and 60 mins. Another identical set was incubated in dark for comparison. After treatment, the DNA was precipitated from the solutions using 10 mL of cooled ethanol, vortexed, and collected by centrifugation. The precipitate was washed twice with cooled ethanol (5 mL) to remove soluble platinum complexes. The white fibrous precipitate was dissolved using 200 μl of conc. HNO3 for 12 h and diluted with distilled water to 2% HNO3-water solutions. Platinum content was measured by ICP-MS instrument. Untreated samples (DNA alone, complex alone) were kept for control. Platinum standards were made by dissolving K2PtCl4 in 98% aq. HNO3 and used for calibration. The data along with the deviation is reported based on experiments performed in duplicate.

Solubility in solvents = format: physicochemical
Description: Synthesis of IR797-acac: IR797 chloride (250 mg, 0.49 mmol), acetylacetone (245 μl, 2.45 mmol) and N,N-diisopropylethylamine (90 μl, 0.49 mmol) were dissolved in acetonitrile (10 mL) in a sealed vial. The dark green colored solution was heated at 70° C. on a microwave apparatus (Discover, CEM, 60 W) for 15 mins. The progress of the reaction was monitored via TLC and stopped only after full consumption of the starting dye. The reaction mixture was allowed to cool down to room temperature and dichloromethane (50 mL) was added. The organic layer was washed using saturated sodium bicarbonate solution (2×10 ml), dried over anhydrous sodium sulfate, filtered, and evaporated using a rotavac. The crude material was subjected to column chromatography using ethyl acetate (100%) and dichloromethane-methanol eluents (0-10%) to yield pure product, IR797-acac (150 mg, 50% yield). ^1H NMR (400 MHz, CDCl3): δ (ppm)=7.43-7.36 (m, 4H), 7.31 (d, J=7.4 Hz, 2H), 7.21 (t, J1=J2=7.2 Hz, 2H), 7.11 (d, J=8.0 Hz, 2H), 6.20 (d, J=14 Hz, 2H), 3.74 (s, 6H), 3.15 (s, 4H), 2.00 (s, 6H), 1.58 (s, 12H). ^13C NMR (100 MHz, CDCl3): δ (ppm)=191.42, 170.78, 144.66, 142.96, 140.71, 137.40, 128.80, 124.99, 122.04, 110.04, 103.39, 48.82, 32.53, 28.42, 23.60. ESI-MS in MeCN: m/z (expected)=533.33, m/z (observed)=533.32 [M-Cl]^+ (100%). […]

human cancer cell lines = experiment: MTT cytotoxicity in a panel of human cancer cell lines; format: cell-based; conditions: dark, similar conditions
Description: MTT assay: Cytotoxic profiles of the compounds were assessed in the following cell lines (passage number not exceeding 15): MCF-7 (human breast cancer) C-33 A (human cervical carcinoma) and HEK293T (transformed human kidney). Around 6000 cells were seeded in 96 well transparent flat-bottom tissue-culture plate in 200 μl of Dulbecco's Modified Eagle Medium (DMEM) containing 10% FBS (Fetal Bovine Serum) and were incubated for 24 h at 37° C. and 5% CO2. We performed an initial control experiment with vehicle alone (0.1% DMSO-DMEM) on cells with different dosages of near-IR light and compared it to unexposed counterparts. The cells were unharmed by light and vehicle alone up to 45 min of photoirradiation. Cells were treated with various concentrations of 1, 2, IR797-acac, cisplatin and an equimolar mixture of IR797-acac and cisplatin in 0.1% DMSO-DMEM for 4 h or 48 h in the dark. One such plate was exposed to near-IR light for 45 min in phenol-red free DMEM (200 μl) and room temperature was maintained using a cooling system. Another identical plate was kept in dark. The plates were incubated for another 24 h in dark. Finally, MTT [3-(4,5-dimethylthiazole-2-yl)-2,5-diphenyltetrazolium bromide] […] The absorbance of the precipitated formazan was recorded at 550 nm in DMSO. […] The half-growth inhibitory concentration (IC50) values were calculated by nonlinear regression analysis using GraphPad Prism5. […]

[4] = Photodecomposition and dark stability (absorbance, LC-MS); format: physicochemical; conditions: buffer, pH 7.4
Description: High performance liquid chromatography: For verifying purity, samples (25 μl in 2.5% DMSO-H2O) were loaded on an analytical C18 column and gradient was maintained at 10-100 percent of MeCN—H2O from 10-50 min. The absorbance was measured at different wavelengths within the range of 200-800 nm. For photolysis experiments, solution of 1 (30 μl of 100 nM in 0.01% of DMSO-PBS, irradiated for 1 min) was injected on the column and eluted using the same gradient as above.
Liquid-chromatography mass spectral experiments: Solutions of 1 and IR797-acac (100 nM in 0.01% DMSO-PBS) were used to carry out LC-MS studies. Samples were injected on a self-packed fused silica (polymicro technologies) trap column (360 micron o.d.×100 micron i.d.) with a Kasil frit packed with 5-15 micron irregular phenyl C-18 YMC packing. The trap column is connected to an analytical column (360 micron×50 micron) with a fritted tip at 5 micron or less (New Objective) packed with 5 μm phenyl C-18 YMC packing. Compounds were initially trapped and then eluted into a Thermo Finnigan LCQ deca XP max mass spectrometer (Thermo Scientific) with an acetonitrile gradient from 0% to 80% over 5 minutes at a flow rate of between 50-150 nl/min. […]

ctDNA [5] = experiment: DNA melting experiments and Hoechst displacement assays; format: binding; conditions: in the dark
Description: DNA thermal denaturation experiments: The DNA thermal denaturation experiments were performed by monitoring the absorption intensity of ct-DNA (200 μM) at 260 nm at increasing temperatures (from 40 to 90° C.), both in the absence and presence of complex 1 and IR797-acac (20 μM in 1% DMSO-DPBS solutions, pH=7.2). The experiments were performed using Agilent UV-visible spectrophotometer connected to a Peltier thermostat for temperature control. Data was recorded with increasing the temperature of the solution by 1.0° C. per min. The derivative of the melting plots gave the DNA melting temperature (Tm) of the ct-DNA. Ethidium bromide (20 μM) as a standard intercalator was used for comparison.

Work on `N.N.[Cl][Pt][Cl]` [CP, cisplatin, reference compound] yielded an IC50 ([1]; cisplatin incubated 48 h in the dark, light 45 mins, 720-740 nm, read-out: IC50 MCF-7 Light) of 22.5 ± 3.2 µM, an IC50 ([1]; cisplatin incubated 48 h in the dark, read-out: IC50 MCF-7 Dark) of 25 ± 2.2 µM and an IC50 ([2]; cisplatin incubated 48 h in the dark, light 45 mins, 720-740 nm, read-out: IC50 C-33 A Light) of 16.1 ± 1.5 µM. The IC50 ([2]; cisplatin incubated 48 h in the dark, read-out: IC50 C-33 A Dark) was 17.7 ± 1.5 µM.

With `CC1=CC(C)=[O+][Pt-2]([NH3+])([NH3+])[O]1.O=[N+]([O-])[O-]` (centres unmarked) [Complex 2, [Pt(NH3)2(acac)](NO3)], reference compound] the “incorporation of Pt into DNA in the dark” value (ctDNA [3]) was “slow incorporation”.

For `CC(=O)C(=C(C)O)C1=C(C=CC2=[N+](C)c3ccccc3C2(C)C)CCC1=CC=C1N(C)c2ccccc2C1(C)C.[Cl-]` [IR797-acac], the IC50 ([1]; 4 h in dark, then light 45 mins, 720-740 nm, 3.5 ± 1.5 mW·cm^−2, read-out: IC50 MCF-7 Light) was 4.7 ± 0.8 µM, the IC50 ([1]; 4 h in the dark, read-out: IC50 MCF-7 Dark) was 5.9 ± 0.3 µM and the solubility (Solubility in solvents) was “readily soluble in polar solvents”. The “toxicity in unexposed cells” value (human cancer cell lines) was “toxic on its own”, the “half-life of photodecomposition t1/2^L” value [4] was ~40 s and the “stability in dark t1/2^D” value [4] was ~10 h. For the same compound, the IC50 ([2]; 4 h in dark, then light 45 mins, 720-740 nm, 3.5 ± 1.5 mW·cm^−2, read-out: IC50 C-33 A Light) was 0.3 ± 0.07 µM, the IC50 ([2]; 4 h in the dark, read-out: IC50 C-33 A Dark) was 1.2 ± 0.1 µM and the DNA interaction mode (ctDNA [5]) was “interact with the minor groove of ctDNA”.
